Patent US20240293420A1, “PHARMACEUTICAL COMPOSITION, PREPARATION, AND PREPARATION METHOD THEREFOR AND USE THEREOF” (WUHAN LL SCIENCE AND TECHNOLOGY DEVELOPMENT CO., LTD., priority 2021, published 2024)
Entries after “also recorded” stand apart in the source; their conditions may differ.

How the values were obtained:
[1] = Crystal form transformation under humidity / drying (XRPD); format: physicochemical; settings: humidity or drying as stated in the value
Text: Crystal form I can be obtained by the preparation method in Example 3. […] (FIG. 29). Combined with the DVS test results (FIG. 30), it can be seen that the mutual transformation between crystal forms I and IV is reversible.
Crystal form IV is a hygroscopic product of crystal form I under high humidity environment, and can be obtained by slurrying crystal form I or crystal form V in a mixed solvent of water/acetone with a water content of 50% to 95%.
Crystal form VI was obtained by slurrying crystal form I or crystal form V at 60° C. in a mixed solvent of water/acetone with a water content of 10% (volume ratio) at 60° C.
Crystal form VIII is a hydrate, but the hydrate is unstable.

[2] = Dynamic vapor sorption (DVS) test; format: physicochemical; settings: for DVS (wt %, 80% RH) / DVS (wt %, 90% RH): 25° C.
[3] = Physical and chemical stability of crystal forms at 60° C. (closed) and 40° C./75% RH (open); format: physicochemical
Description: The physical and chemical stability of crystal forms I, III, and V at 60° C. (closed) and 40° C./75% RH (open) for 7 days were investigated respectively.
(closed) and 40° C./75% RH (open) for 3 months were investigated.

[4] = Solubility tests in biological media of SGF, FaSSIF and FeSSIF; format: physicochemical
Description: The instrument used for liquid chromatography analysis was Agilent HPLC 1260 series, and the analytical method is shown in the table below.
The results of solubility tests of crystal forms I, III, and V in biological media of SGF, FaSSIF, and FeSSF are as shown in Table E and FIG. 43. There was little difference in the solubility of the above three crystal forms in different biological media, and the solubility in SGF was higher than 5 mg/mL.

[5] = Pharmacokinetic experiments in Beagles; format: in vivo; settings: Beagle, male, PO, 10 mg/kg, plasma
Description: The present disclosure preferred crystal forms I, III, and V of the compound in the above examples for pharmacokinetic experiments in Beagles, and the relevant experiments are as follows:
Animal: 9 Beagles, male, divided into three groups with 3 in each group, weight ranging from 10 to 13 kg (source & certificate number: Beijing Marshall Biotechnology Co., Ltd., No. 1103182011000161)
Administration mode and dosage: PO: 10 mg/kg
Preparation: 0.5% CMC-Na was used as the solvent, and 400 mg of each of the three different crystal forms of compound A were weighed and added to the corresponding 79 mL of solvent, respectively. The mixture was subjected to ultrasonication for 20 minutes, added with a stirrer, and mixed thoroughly for 3 hours (the storage period from compound preparation to animal administration at room temperature was less than 6 hours). After the drug solution became a homogeneous and fine suspension, which was observed by the naked eye, the solvent was gradually added until the specified volume reached the target concentration. The preparation was stirred for 10 minutes at room temperature before administration, and stirred continuously during administration.
Time points for sampling: the time points for blood sampling in the PO group were 0.167, 0.5, 1, 2, 4, 6, 8, and 24 hours.
Animals in the PO group were fasted overnight except for free access to water before administration, and resumed food supply 4 hours after administration.
After Beagles in the […] were administered, blood was collected from Beagles by jugular vein puncture according to the time points for sampling. About 1.0 mL of blood was collected at each time point and transferred to an anticoagulant EP tube (containing 10 μL of EDTA-K2, 375 mg/mL). The tube was gently inverted three times, stored in an ice box (no more than 30 minutes), and centrifuged at 3200 g for 10 minutes at 4° C. The plasma was transferred to an ultra-low temperature refrigerator and stored until detection.
Sample pretreatment process: 40 μL of sample was taken, and 160 μL of acetonitrile solution containing 0.1% FA and 200 ng/mL of mixed standard solution was added to precipitate the protein. The mixture was vortexed and mixed well, and the sample was centrifuged in a 4° C. centrifuge at 13000 pm for 10 minutes. 100 μL of the supernatant was transferred to another 96 deep well plate, then 100 μL of methanol:water (1:3, v:v) solution containing 0.1% FA was added thereto, and the mixture was shaken and mixed for 10 minutes.
• Ion source: ion electrospray (ESI) • Ionization mode: positive ion mode (Positive) • Detection mode (mode): multiple reaction monitoring (MRM) • Ion spray voltage: 5500 V • Ion spray temperature (turbo ion spray temp): 550° C. • Curtain gas type: nitrogen setting: 35 • Collision cell gas type (CAD gas type): nitrogen setting: medium • Nebulizing gas type (gas 1): nitrogen setting: 55.00 • Auxiliary gas type (gas 2): nitrogen setting: 55.00
• Chromatographic column: poroshell 120 EC-C18 (4.6×50 mm, 2.7 μm) • Mobile phase A: 0.1% formic acid aqueous solution • Mobile phase B: a solution of 0.1% formic acid in methanol • Auto sampler wash solution (rinse port wash solution): 50% methanol • Column temperature: 40° C. • Flow rate: 0.55 mL/min • Auto sampler temperature (sample tray temp): 10° C. • Injection volume: 3 μL • Lift of presser foot (needle stroke): 49 mm • Auto sampler rinse setting (rinse pump setting): rinse port only • Auto sampler rinse mode (rinse mode): before aspiration • Auto sampler rinse volume for needle (rinse volume): 500 μL • Dip time when rinsing the injection needle (rinse dip time): 2 seconds
The data would be analyzed using WinNonlin (version 5.2.1 Pharsight, Mountain View, CA) through a non-compartmental model to obtain PK parameters (selecting Cmax, Tmax, AUClast, T1/2, and other parameters according to different routes of administration).

[6] = phase II clinical trial; cited from earlier work

DVS (wt %, 80% RH) ([2]; 80% RH) [wt %] | DVS (wt %, 90% RH) [2] [wt %] | Purity - 7 days (peak area %) ([3]; 40° C./75% RH (open), 7 days) | Purity - 7 days (peak area %) ([3]; 60° C. (closed), 7 days) | Initial purity (peak area %) [3] [peak area %] | pH ([4]; FaSSIF, 0.5 h) | pH ([4]; FaSSIF, 2 h) | pH ([4]; FaSSIF, 24 h) | pH ([4]; FeSSIF, 0.5 h) | pH ([4]; FeSSIF, 2 h) | pH ([4]; FeSSIF, 24 h) | pH ([4]; SGF, 0.5 h) | pH ([4]; SGF, 2 h) | pH ([4]; SGF, 24 h) | AUClast [5] [ng·h/mL] | Cmax [5] [ng/mL] | T1/2 [5] [h] | Compound | crystal form transformation [1] | XRPD of remaining solid ([4]; FaSSIF, 0.5 h) | XRPD of remaining solid ([4]; FeSSIF, 0.5 h) | other results
 |  |  |  |  |  |  |  |  |  |  |  |  |  |  |  |  | COC(=O)N1CCO[C@@H](Cc2c(-c3c(F)cc(S(N)(=O)=O)cc3F)nc3cc(Cl)ccn23)C1 [Crystal form VI, methyl (S)-2-((7-chloro-2-(2,6-difluoro-4-sulfamoylphenyl)imidazo[1,2-a]pyridin-3-yl)methyl)morpholine-4-carboxylate] | transformed into crystal form I after being placed under ambient humidity (35% RH) for a few minutes |  |  | 
6.8 | 6.9 | 99.38 | 99.37 | 99.38 | 6.4 | 6.4 | 6.4 | 5.0 | 5.1 | 5.1 | 1.2 | 1.3 | 1.2 | 7926 ± 6235 | 991 ± 800 | 11.9 ± 3.65 | COC(=O)N1CCO[C@@H](Cc2c(-c3c(F)cc(S(N)(=O)=O)cc3F)nc3cc(Cl)ccn23)C1 [Crystal form I, methyl (S)-2-((7-chloro-2-(2,6-difluoro-4-sulfamoylphenyl)imidazo[1,2-a]pyridin-3-yl)methyl)morpholine-4-carboxylate] | absorbed moisture under high humidity environment and was transformed into crystal form IV as a hydrate; also recorded: easy to transform into crystal form IV when RH >40% | transformed into crystal form IV as a hydrate | transformed into crystal form IV as a hydrate | XRPD before and after the DVS test [2]: remained unchanged; hygroscopicity (DVS) ([2]; 80% RH): 6.8%; XRPD ([3]; 40° C./75% RH (open), 7 days): transformed into crystal form IV as a hydrate; Tmax [5]: 2.00 ± 0.00 h
 |  |  |  |  |  |  |  |  |  |  |  |  |  |  |  |  | COc1cc(C(C)C)c(Oc2cnc(N)nc2N)cc1S(N)(=O)=O [AF-219] |  |  |  | dysgeusia [6]: serious dysgeusia problem; efficacy on refractory cough [6]: good efficacy
 |  |  |  |  |  |  |  |  |  |  |  |  |  |  |  |  | COC(=O)N1CCO[C@@H](Cc2c(-c3c(F)cc(S(N)(=O)=O)cc3F)nc3cc(Cl)ccn23)C1 [Crystal form VIII, methyl (S)-2-((7-chloro-2-(2,6-difluoro-4-sulfamoylphenyl)imidazo[1,2-a]pyridin-3-yl)methyl)morpholine-4-carboxylate] | transformed into crystal form I |  |  | 
 |  |  |  |  |  |  |  |  |  |  |  |  |  |  |  |  | COC(=O)N1CCO[C@@H](Cc2c(-c3c(F)cc(S(N)(=O)=O)cc3F)nc3cc(Cl)ccn23)C1 [Crystal form IV, methyl (S)-2-((7-chloro-2-(2,6-difluoro-4-sulfamoylphenyl)imidazo[1,2-a]pyridin-3-yl)methyl)morpholine-4-carboxylate] | transformed into crystal form I as an anhydrous crystal form after vacuum drying and dehydration |  |  | 
0.7 | 0.9 | 99.28 | 99.30 | 99.29 | 6.4 | 6.4 | 6.4 | 5.0 | 5.0 | 5.1 | 1.2 | 1.1 | 1.2 | 2637 ± 1750 | 170 ± 99.4 | 44.4 ± 28.9 | COC(=O)N1CCO[C@@H](Cc2c(-c3c(F)cc(S(N)(=O)=O)cc3F)nc3cc(Cl)ccn23)C1 [Crystal form V, methyl (S)-2-((7-chloro-2-(2,6-difluoro-4-sulfamoylphenyl)imidazo[1,2-a]pyridin-3-yl)methyl)morpholine-4-carboxylate] |  | Unchanged | Unchanged | XRPD of remaining solid ([4]; FaSSIF, 2 h): Unchanged; XRPD of remaining solid ([4]; FaSSIF, 24 h): Unchanged; XRPD of remaining solid ([4]; FeSSIF, 2 h): Unchanged; XRPD of remaining solid ([4]; FeSSIF, 24 h): Unchanged; solubility at 2 h ([4]; pH 1.1, simulated gastric fluid, thermodynamic from solid, SGF, 2 h, visual observation): > 5000 µg/mL; Tmax [5]: 4.67 ± 0.67 h
